Experimental findings from PubChem BioAssay AID624300 (Southern Research Specialized Biocontainment Screening …, 2012) are described below.

Structures are written as SMILES.

The test system of the experiment is HeLa viability, CellTiter-Glo luminescence, 24 h. Briefly: HeLa cell cytotoxicity, dose response, cytotoxicity control for MgcRacGAP inhibitor project (AID 624300).

With `C#CCOCCOCCOCCNc1nc(N2CCN(C(=O)CCCCCCCCCCNC(=O)[C@@H](CCSC)n3cc(CCO)nn3)CC2)nc(N2CCN(C(=O)CCCCCCCCCCNC(=O)[C@H](CO)n3cc(CCCCCN)nn3)CC2)n1`, the CC50 was 85.3 µM.

As usually defined, the CC50 is the concentration giving 50% cytotoxicity.
